Assay results: PubChem BioAssay AID2305 (GlaxoSmithKline (GSK), 2010)

Tested on: P. falciparum 3D7 growth, pLDH absorbance
Assay: blood-stage malaria parasite growth potency – strain 3D7, dose response (AID 2305)

Structure (SMILES) | IC50 [nM]
COc1cc(Nc2nccc(Nc3ccc4c(C)[nH]nc4c3)n2)cc2ccccc12 | 700
Cn1nc(C(F)(F)F)c(-c2ccc(Br)cc2)c1NC(=O)Cc1ccccc1F | 160
CC(C)N(Cc1ccc(-c2ccc(C(F)(F)F)cc2)cc1)C(=O)Cn1c(SCc2cccc(F)c2F)cc(=O)c2cc(CN3CCCCC3)ccc21 | 870
Cc1noc(C)c1C(=O)N1CCc2cc3nccc(N4CCN5CCC[C@H]5C4)c3cc21 | 870
CCOC(=O)N1CCN(CCCCNc2c3ccc(Cl)cc3nc3ccc(OC)cc23)CC1 | 120
Cc1cc(N[C@@H](CC(C)C)C(=O)NCCCOC(C)C)nc(NCCc2ccc(F)cc2)n1 | 1250
Cc1cc(CNCCCCCCNCc2ccc(Cl)cc2)ccc1O | 820
CCNc1cc(C(=O)N[C@@H](Cc2ccccc2)[C@H](O)CNC2CCCCC2)cc(N2CCCCS2(=O)=O)c1 | 170
CCCCCCCCc1c(C)[nH]c(C)c(Cl)c1=O | 230
CN(C)CCn1c(N)c(-c2nc3ccccc3s2)c2nc(C#N)c(C#N)nc21 | 1010
CNCCNCc1ccc(-c2ccc(-c3nc4c(C)cccc4[nH]3)s2)cc1 | 730
NC1CCN(c2nc(NCCc3ccc(O)cc3)nc(NCc3ccccc3-c3ccccc3)n2)CC1 | 820
Cc1ccc(C2CCN(CCCCNC(=O)c3ccc(NC(=O)c4ccc(Cl)cc4)cc3)CC2)c(OCC2CC2)c1 | 890
CCOc1c(OC)ccc2c1CCN(CCN1CCC(NC(=O)c3ccc(-c4cccc(C(F)(F)F)c4C(F)(F)F)cc3)CC1)C2 | 730
CCOC(=O)c1cn(CC)c2cc(N3CCCCCC3)c(F)cc2c1=O | 410
COc1cc(-c2cc3cc(Cl)c(Cl)cc3[nH]2)ccc1C(=O)NC1CCN(Cc2ccccc2)CC1 | 530
OC(CNCCc1ccccc1)Cn1c2ccc(Cl)cc2c2cc(Cl)ccc21 (stereo not drawn) | 730
CN(C)c1ccc(CN2CCC(CNC(=O)c3cc(-c4cccc(C(F)(F)F)c4)cs3)C2)cc1 (stereo not drawn) | 880
O=C(NCCN1CCCCC1)c1ccc(Nc2nccc(Nc3ccc(Oc4ccccc4)cc3)n2)cc1 | 550

Structure (SMILES) | IC50 [nM]
Cc1ccc(NC(=O)N2CCC(n3c(-c4ccccc4)nc4cccnc43)CC2)cc1F | 530
COc1ccccc1/C=C/C(=O)NCCC1CCN(CCCCCNC(=O)/C=C/c2ccc(Cl)c(Cl)c2)CC1 | 810
c1cc(-c2ccc(CNCCc3ccncc3)cc2)cc(-c2nc3ccccc3[nH]2)c1 | 140
Fc1ccc2nc(-c3ccc(-c4ccc(CNCCc5ccncc5)cc4)cc3)[nH]c2c1 | 140
COc1c(C2CCN(CCCCNC(=O)c3cc(-c4ccc(C#N)cc4)n[nH]3)CC2)ccc2c1CCCC2 | 1160
CCOC(=O)c1cc(C(=O)OC)c2ccccn12 | 220
Cc1[nH]c2ccccc2c1C1=CCN(CCCCCNC(=O)/C=C/c2ccc(Cl)c(Cl)c2)CC1 | 270
CCOc1cc(C=NNc2nc3ccccc3[nH]2)ccc1OCc1ccc([N+](=O)[O-])cc1 | 1000
CCOC(=O)c1cn(CC)c2cc(N(C)CCc3ccc(OC)c(OC)c3)c(F)cc2c1=O | 430
O=C(Nc1cccc(CN2CCCN(Cc3ccc4c(c3)OCO4)CC2)c1)c1ccc(-c2ccccc2)cc1 | 650
Cc1cccc2[nH]c(-c3cccc(-c4ccc(NC(=O)NC(C)C)cc4)c3)nc12 | 750
COc1ccc([N+](=O)[O-])cc1N(Cc1ccccc1-c1ccccc1)S(=O)(=O)c1ccc(C(F)(F)F)cc1[N+](=O)[O-] | 1050
CCN(CC)S(=O)(=O)c1ccc(CCOCCCCCNCC(O)c2cc(Cl)c(N)c(Cl)c2)s1 (stereo not drawn) | 860
CN1CCN(CCCN(Cc2csc(-c3ccc(CNCc4ccccc4)cc3)n2)S(=O)(=O)c2ccccc2Cl)CC1 | 880
Cc1cc(Nc2ccc(Oc3ccc(Cl)cc3)cc2)nc(N)n1 | 620
COc1ccc2nc(C)cc(NN=Cc3cccc(Cl)c3)c2c1 | 630
CS(=O)(=O)Nc1ccc2c(C3CCN(CC4CCN(C(=O)/C=C/c5ccc(Cl)c(Cl)c5)CC4)CC3)c[nH]c2c1 | 760
COCCNCc1ccc(-c2cccc(CNC3CCN(Cc4ccccc4)CC3)c2)cc1 | 330
CNc1nc(NN=Cc2ccccc2Cl)nc(Nc2cccc(C(F)(F)F)c2)n1 | 920
